Like-named read-outs stand apart in the source and are kept apart here.

In experiment [1] the test system is Aβ40 in conditioned medium of cells stably expressing Amyloid Precursor Protein (APP). Kind of experiment: In vitro BACE cell-based assay (Aβ40 in conditioned medium, sandwich ELISA). Particulars: read-out: HEK cell assay. The essentials: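 The sandwich ELISA pairs pAb40 capture (3 h, 4 °C) with 6E10 detection (2 h, 4 °C) and a streptavidin-europium TRF read-out. Supernatants come from APP-expressing cells grown in 10% FBS DMEM.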
Background: An ELISA detects its analyte on a solid surface through an enzyme-linked reagent.

Experiment [2] has as its target Beta Secretase enzyme (BACE) (Homo sapiens, UniProt P56817). The experiment can be described thus: In vitro enzymatic BACE FRET (fluorescence resonance energy transfer) assay. The experiment is classed as biochemical. Particulars: average IC50, enzyme assay; read-out: BACE 1 FRET assay. The method in brief:
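Run in 0.05 M acetate pH 4.2 with 10% DMSO final and 100 uM genapol; started by adding 50 nM FRET peptide substrate (fluorophore and quencher flanking the cleavage site), incubated one hour, then stopped with Tris to neutral pH before reading fluorescence.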

[3] abbreviates: Homo sapiens, HEK293, average IC50, HEK cells.
The mark [4] stands for this setting: Homo sapiens, HEK293, average IC50.

Beta Secretase enzyme (BACE), sequence (P56817 46-501, species assumed): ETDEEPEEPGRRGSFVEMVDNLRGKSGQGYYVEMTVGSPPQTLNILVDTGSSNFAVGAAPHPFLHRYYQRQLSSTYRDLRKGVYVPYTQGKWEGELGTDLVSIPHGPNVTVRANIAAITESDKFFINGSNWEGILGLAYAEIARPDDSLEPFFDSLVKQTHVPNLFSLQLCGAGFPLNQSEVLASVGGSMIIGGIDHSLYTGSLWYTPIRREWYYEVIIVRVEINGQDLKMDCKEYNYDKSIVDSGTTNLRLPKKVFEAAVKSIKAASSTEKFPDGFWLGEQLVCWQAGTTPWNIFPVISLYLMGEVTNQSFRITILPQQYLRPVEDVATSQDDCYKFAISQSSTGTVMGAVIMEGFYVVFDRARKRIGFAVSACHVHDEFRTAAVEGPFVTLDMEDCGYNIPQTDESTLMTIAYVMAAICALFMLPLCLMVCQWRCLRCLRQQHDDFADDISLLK

In the case of `CN1CCN(c2cc3c(cn2)Oc2ccc(-c4cccnc4F)cc2[C@@]32COC(N)=N2)CC1(C)C` [Example 529, (5S)-7-(2-fluoro-3-pyridinyl)-3-(3,3,4-trimethyl-1-piperazinyl)spiro[chromeno[2,3-c]pyridine-5,4′-[1,3]oxazol]-2′-amine], the IC50 is 4.4 nM in experiment [1] (setting [3]) and 8.9 nM in experiment [2].
Take `NC1=N[C@@]2(CO1)c1cc(OCc3cccc(C(F)(F)F)c3)ccc1Oc1ncc(-c3cccnc3)cc12` [Example 985, (5S)-3-(3-pyridinyl)-7-((3-(trifluoromethyl)benzyl)oxy)spiro[chromeno[2,3-b]pyridine-5,4′-[1,3]oxazol]-2′-amine]: the IC50 in experiment [1] (setting [4]) turned out to be 288 nM; in experiment [2], 68.3 nM.
Consider `C[C@@](C#Cc1cnc2c(c1)[C@]1(COC(N)=N1)c1cc(-c3cccnc3F)ccc1O2)(CO)CCl` (single isomer, unassigned) [Example 1014], for which the figures for the IC50 in experiment [1] and in experiment [2] were 21 nM and 2.2 nM, respectively.
For the molecule `COc1cc(F)c2c(c1)[C@@]1(COC(N)=N1)c1cc(Br)c(F)cc1O2` [Example 524, (4R)-2′-bromo-3′,5′-difluoro-7′-methoxyspiro[1,3-oxazole-4,9′-xanthen]-2-amine], the values for the IC50 in experiment [1] (setting [3]) and in experiment [2] were 1310 nM and 1140 nM, respectively.
For the molecule `CC1(C)CC(c2cnc3c(c2)[C@]2(CSC(N)=N2)c2cc(-c4cncnc4)ccc2O3)=CCO1` [Example 669, (5S)-3-(2,2-dimethyl-3,6-dihydro-2H-pyran-4-yl)-7-(5-pyrimidinyl)spiro[chromeno[2,3-b]pyridine-5,4′-[1,3]thiazol]-2′-amine], the IC50 in experiment [1] (setting [3]) is 10 nM; in experiment [2] it was 0.8 nM.
For `CC(C)(C)C#Cc1ccc2c(c1)[C@@]1(COC(N)=N1)c1cc(-c3ccnc(F)c3)ncc1O2` [Example 162, (5S)-7-(3,3-dimethyl-1-butyn-1-yl)-3-(2-fluoro-4-pyridinyl)spiro[chromeno[2,3-c]pyridine-5,4′-[1,3]oxazol]-2′-amine], the IC50 was 775 nM in experiment [1] (setting [4]) and 23 nM in experiment [2].
In the same order, the values of `N#Cc1cccc(-c2ccc3c(c2)[C@@]2(CSC(N)=N2)c2cc(C4=CCOCC4)cnc2O3)c1F` [Example 763, 3-((5S)-2′-amino-3-(3,6-dihydro-2H-pyran-4-yl)spiro[chromeno[2,3-b]pyridine-5,4′-[1,3]thiazol]-7-yl)-2-fluorobenzonitrile] are 17 nM and 2.1 nM.
Turning to `NC1=N[C@@]2(CO1)c1cc(-c3cccnc3F)ccc1Oc1c2cc(N2CCC(F)(F)C2)nc1F` [Example 918, (S)-3-(3,3-difluoropyrrolidin-1-yl)-1-fluoro-7-(2-fluoropyridin-3-yl)-5′-H-spiro[chromeno[2,3-c]pyridine-5,4′-oxazol]-2′-amine], the IC50 in experiment [1] (setting [3]) was 4 nM; in experiment [2], 0.2 nM.
`NC1=N[C@@]2(CO1)c1cc(-c3cnccc3F)ccc1Oc1c(F)cc(C3=CCOCC3)cc12` [Example 1044, (4S)-2′-(3,6-dihydro-2H-pyran-4-yl)-4′-fluoro-7′-(4-fluoro-3-pyridinyl)spiro[1,3-oxazole-4,9′-xanthen]-2-amine]: the figures for the IC50 in experiment [1] (setting [4]) and in experiment [2] were 18 nM and 0.5 nM, respectively.
Take `NC1=N[C@@]2(CO1)c1cc(OCc3cccnc3)ccc1Oc1ncc(C3=CCOCC3)cc12` [Example 971, (5S)-3-(3,6-dihydro-2H-pyran-4-yl)-7-(3-pyridinylmethoxy)spiro[chromeno[2,3-b]pyridine-5,4′-[1,3]oxazol]-2′-amine]: the IC50 in experiment [1] (setting [4]) turned out to be 154 nM; in experiment [2], 33.6 nM.
As for `NC1=N[C@@]2(CO1)c1cc(-c3cc(Cl)ccc3F)ccc1Oc1ncc(C3=CCCOC3)cc12` [Example 172, (5S)-7-(5-chloro-2-fluorophenyl)-3-(5,6-dihydro-2H-pyran-3-yl)spiro[chromeno[2,3-b]pyridine-5,4′-[1,3]oxazol]-2′-amine], the IC50 in experiment [1] (setting [4]) was 5.3 nM; in experiment [2] it was 0.4 nM.
For the molecule `COC(C)(C)C#Cc1ccc2c(c1)[C@@]1(CSC(N)=N1)c1cc(-c3cccnc3)cnc1O2` [Example 671, (5S)-7-(3-methoxy-3-methyl-1-butyn-1-yl)-3-(3-pyridinyl)spiro[chromeno[2,3-b]pyridine-5,4′-[1,3]thiazol]-2′-amine], the results for the IC50 in experiment [1] (setting [3]) and in experiment [2] were 140 nM and 19 nM, respectively.
Turning to `COc1cc(F)c2c(c1)[C@]1(COC(N)=N1)c1cc(-c3cncc(C(F)(F)F)c3)ccc1O2` [Example 1073, (4S)-4′-fluoro-2′-methoxy-7′-(5-(trifluoromethyl)-3-pyridinyl)spiro[1,3-oxazole-4,9′-xanthen]-2-amine], the IC50 worked out at 194 nM in experiment [1] (setting [4]) and 61.4 nM in experiment [2].
Take `Cc1ccc(-c2cc(F)c3c(c2)[C@]2(COC(N)=N2)c2cc(OCC4(C)COC4)ccc2O3)cn1` [Example 440, (4S)-4′-fluoro-7′-((3-methyl-3-oxetanyl)methoxy)-2′-(6-methyl-3-pyridinyl)spiro[1,3-oxazole-4,9′-xanthen]-2-amine]: the values for the IC50 in experiment [1] (setting [3]) and in experiment [2] were 16.9 nM and 11.7 nM, respectively.
For `COc1nc(N2CCC(F)(F)CC2)cc2c1Oc1ccc(-c3cccnc3F)cc1[C@@]21COC(N)=N1` [Example 849, (5S)-3-(4,4-difluoro-1-piperidinyl)-7-(2-fluoro-3-pyridinyl)-1-methoxyspiro[chromeno[2,3-c]pyridine-5,4′-[1,3]oxazol]-2′-amine], the results for the IC50 in experiment [1] (setting [3]) and in experiment [2] were 78 nM and 4.2 nM, respectively.
Taken in the same sequence, the figures for `NC1=N[C@]2(CS1)c1cc(-c3cccnc3F)ccc1Oc1cnc(C3=CCOCC3)cc12` [Example 613, (5R)-3-(3,6-dihydro-2H-pyran-4-yl)-7-(2-fluoro-3-pyridinyl)spiro[chromeno[2,3-c]pyridine-5,4′-[1,3]thiazol]-2′-amine] were 2560 nM and 227 nM.
As for `Cc1ccn(-c2cc(F)c3c(c2)[C@]2(COC(N)=N2)c2cc(-c4cccnc4)ccc2O3)n1` [Example 633, (4S)-4′-fluoro-2′-(3-methyl-1H-pyrazol-1-yl)-7′-(3-pyridinyl)spiro[1,3-oxazole-4,9′-xanthen]-2-amine], the IC50 in experiment [1] (setting [3]) came to 34 nM; in experiment [2], 3.9 nM.
For the molecule `NC1=N[C@@]2(CO1)c1cc(-c3cccnc3F)ccc1Oc1c2cc(Br)nc1F` [Example 734, (5S)-3-bromo-1-fluoro-7-(2-fluoro-3-pyridinyl)spiro[chromeno[2,3-c]pyridine-5,4′-[1,3]oxazol]-2′-amine], the IC50 in experiment [1] (setting [4]) turned out to be 2260 nM; in experiment [2] it was 7.8 nM.
Taken in the same sequence, the figures for `C[C@@H]1CN(c2cc(F)c3c(c2)[C@]2(COC(N)=N2)c2cc(-c4cncc(F)c4)ccc2O3)C[C@H](C)O1` [Example 274, (4S)-2′-((2R,6S)-2,6-dimethyl-4-morpholinyl)-4′-fluoro-7′-(5-fluoro-3-pyridinyl)spiro[1,3-oxazole-4,9′-xanthen]-2-amine] were 10.4 nM and 2.9 nM.
Take `Cc1cc(-c2cc3c(cn2)Oc2ccc(-c4ccccc4)cc2[C@@]32COC(N)=N2)on1` [Example 366, (5S)-3-(3-methyl-5-isoxazolyl)-7-phenylspiro[chromeno[2,3-c]pyridine-5,4′-[1,3]oxazol]-2′-amine]: the IC50 came out at 361 nM in experiment [1] (setting [4]) and 80.1 nM in experiment [2].
In the same order, the values of `COCC1SC(N)=NC12c1cc(-c3cccnc3F)ccc1Oc1c(F)cc(OC)cc12` [Example 720, (4R)-4′-fluoro-7′-(2-fluoro-3-pyridinyl)-2′-methoxy-5-(methoxymethyl)spiro[1,3-thiazole-4,9′-xanthen]-2-amine, (4S)-4′-fluoro-7′-(2-fluoro-3-pyridinyl)-2′-methoxy-5-(methoxymethyl)spiro[1,3-thiazole-4,9′-xanthen]-2-amine] are 1370 nM and 67 nM.
As to `NC1=N[C@@]2(CO1)c1cc(-c3cccnc3F)ccc1Oc1cnc(-c3ccc(F)c(F)c3)cc12` [Example 534, (5S)-3-(3,4-difluorophenyl)-7-(2-fluoro-3-pyridinyl)spiro[chromeno[2,3-c]pyridine-5,4′-[1,3]oxazol]-2′-amine], the IC50 in experiment [1] (setting [3]) was 26.6 nM; in experiment [2], 0.5 nM.
For `NC1=N[C@@]2(CO1)c1cc(-c3cccnc3F)ccc1Oc1cnc(/C=C/C3CC3)cc12` [Example 401, (5S)-3-((E)-2-cyclopropylethenyl)-7-(2-fluoro-3-pyridinyl)spiro[chromeno[2,3-c]pyridine-5,4′-[1,3]oxazol]-2′-amine], the values for the IC50 in experiment [1] (setting [3]) and in experiment [2] were 44.9 nM and 4.4 nM, respectively.
With `NC1=N[C@@]2(CO1)c1cc(-c3cccnc3O)ccc1Oc1cnc(-c3ccnc(F)c3)cc12` [Example 712, (S)-3-(2′-amino-3-(2-fluoropyridin-4-yl)-5′H-spiro[chromeno[2,3-c]pyridine-5,4′-oxazole]-7-yl)pyridin-2-ol], the IC50 in experiment [1] (setting [4]) came to 1090 nM; in experiment [2] it was 69.7 nM.
Consider `CC1(COc2cc(F)c3c(c2)[C@]2(COC(N)=N2)c2cc(-c4cccnc4)c(F)cc2O3)COC1` [Example 294, (4S)-3′,5′-difluoro-7′-((3-methyl-3-oxetanyl)methoxy)-2′-(3-pyridinyl)spiro[1,3-oxazole-4,9′-xanthen]-2-amine], for which the IC50 in experiment [1] (setting [4]) worked out at 612 nM; in experiment [2] it was 61.1 nM.
For `N#Cc1cncc(-c2ccc3c(c2)[C@@]2(COC(N)=N2)c2cc(C4=CCOCC4)cc(F)c2O3)c1` [Example 557, 5-((4S)-2-amino-7′-(3,6-dihydro-2H-pyran-4-yl)-5′-fluorospiro[1,3-oxazole-4,9′-xanthen]-2′-yl)-3-pyridinecarbonitrile], the IC50 came out at 3.7 nM in experiment [1] (setting [3]) and 0.7 nM in experiment [2].
In the case of `Cc1ncncc1-c1ccc2c(c1)[C@@]1(COC(N)=N1)c1cc(-c3ccnc(F)c3)ncc1O2` [Example 809, (5S)-3-(2-fluoro-4-pyridinyl)-7-(4-methyl-5-pyrimidinyl)spiro[chromeno[2,3-c]pyridine-5,4′-[1,3]oxazol]-2′-amine], the IC50 in experiment [1] (setting [4]) was determined as 518 nM; in experiment [2], 8.3 nM.
